Assay results reported in US8426588B2, “Phenylalanine derivatives” (Ajinomoto Co, Inc., priority 2000, dated 2013).

Key:
integrin α4β1 = biological target: T1, integrin α4β1 (Homo sapiens, UniProt P05556+P13612); assay: VCAM antagonist activity (VCAM-1/α4β1 binding assay), Jurkat cells binding to VCAM-1; assay type: cell-based; details: Jurkat human T cells binding to recombinant human VCAM-1; read-out: VCAM antagonistic activity (IC50) α4β1
T1 construct: cell strain Jurkat (ATCC TIB-152) of human T cells, known to express integrin α4β1; endogenous in cells; host or cells: Jurkat (ATCC TIB-152)
Experimental: VCAM Antagonist Activity (VCAM-1/α4β1 Binding Assay)
The capacity of a test substance antagonistic to the binding of cell strain Jurkat (ATCC TIB-152) of human T cells, known to express integrin α4β1, to VCAM-1 was determined.
(§1) 100 μl/well of a solution (500 ng/ml) of recombinant human VCAM-1 (R & D systems) solution diluted with buffer A (0.1 M NaHCO3, pH 9.6) was added to a micro titer plate having 96 wells (Nunc Maxisorp). After the incubation at 4° C. overnight, unbound VCAM-1 was removed by washing once with PBS. After completion of the washing, a buffer (buffer B) obtained by diluting Block Ace (Dainippon Pharmaceutical Co., Ltd.) with PBS to ¼ concentration was added in an amount of 150 μl/well. After the incubation at room temperature for 1 hour, buffer B was removed and the plate was washed with PBS once.
Jurkat cells were washed with Dulbecco modified Eagle medium (SIGMA, hereinafter referred to as “DMEM”) twice and then incubated in DMEM containing 10 μg/ml of Calcein-AM (Wako Pure Chemical Industries, Ltd.) at 37° C. in dark place for 30 minutes to label with fluorescence. The cells were again suspended in a binding buffer (20 mM HEPES, DMEM containing 0.1% BSA).
(§2) 50 μl of a test substance of various concentrations obtained by the dilution with the binding buffer was added to the plate. Immediately thereafter, 50 μl (final volume: 100 μl/well) of the fluorescent Jurkat cells (4×10^6 cells/ml) were added thereto, and they were incubated in dark place at room temperature for 30 minutes. After the shaking on a plate shaker (IKA MTS-4) at 800 rpm for 30 seconds, the solution was immediately removed to remove the unbound cells. The fluorescence quantity of the bound cells remaining in the wells was determined with a fluorescent plate reader (Wallac 1920 ARVO multi-label counter) (filter excitation wave length: 485 nm, emission wave length: 535 nm). The fluorescent strength thus obtained is proportional to the number of Jurkat cells bound to VCAM-1 and remaining on the plate. The binding rate of each test material in various concentrations was determined while the fluorescent strength of the test material-free well was determined to be 100%.

integrin α4β7 = biological target: T2, integrin α4β7 (Homo sapiens, UniProt P13612+P26010); assay: VCAM antagonistic activity (VCAM-1/α4β7 binding assay), RPMI-8866 cells binding to VCAM-1; assay type: cell-based; details: RPMI-8866 human B lymphoma cells binding to recombinant human VCAM-1; binding buffer with 4 mM MnCl2
T2 construct: lymphoma cell strain RPMI-8866 of human B cells, known to express integrin α4β7; endogenous in cells; host or cells: RPMI-8866
T2 sequence (P13612 34-1032): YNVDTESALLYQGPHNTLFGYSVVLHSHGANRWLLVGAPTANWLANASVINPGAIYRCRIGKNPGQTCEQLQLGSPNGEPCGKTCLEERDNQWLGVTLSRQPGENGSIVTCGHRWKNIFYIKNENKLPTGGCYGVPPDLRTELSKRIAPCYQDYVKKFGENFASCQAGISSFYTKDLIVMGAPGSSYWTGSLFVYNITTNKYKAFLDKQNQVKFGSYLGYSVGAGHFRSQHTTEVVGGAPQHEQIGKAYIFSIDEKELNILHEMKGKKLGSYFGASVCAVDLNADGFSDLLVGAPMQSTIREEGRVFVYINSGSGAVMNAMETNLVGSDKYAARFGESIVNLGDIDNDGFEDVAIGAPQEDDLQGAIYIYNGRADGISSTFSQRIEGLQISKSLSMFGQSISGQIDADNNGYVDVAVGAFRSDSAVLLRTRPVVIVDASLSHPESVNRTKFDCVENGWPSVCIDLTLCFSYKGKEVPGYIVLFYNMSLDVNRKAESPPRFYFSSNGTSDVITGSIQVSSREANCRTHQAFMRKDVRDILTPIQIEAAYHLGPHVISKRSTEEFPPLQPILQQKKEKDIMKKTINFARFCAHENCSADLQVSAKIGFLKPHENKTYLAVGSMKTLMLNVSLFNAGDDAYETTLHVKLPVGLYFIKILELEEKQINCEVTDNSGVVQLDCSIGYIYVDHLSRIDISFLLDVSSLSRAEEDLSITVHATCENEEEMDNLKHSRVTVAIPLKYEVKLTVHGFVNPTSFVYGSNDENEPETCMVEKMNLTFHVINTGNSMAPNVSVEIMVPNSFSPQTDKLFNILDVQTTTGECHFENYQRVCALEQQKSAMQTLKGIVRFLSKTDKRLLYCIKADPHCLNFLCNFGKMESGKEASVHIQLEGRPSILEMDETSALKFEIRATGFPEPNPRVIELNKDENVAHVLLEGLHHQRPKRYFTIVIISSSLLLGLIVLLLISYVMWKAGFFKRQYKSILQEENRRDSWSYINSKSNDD
T2 sequence (P26010 20-798): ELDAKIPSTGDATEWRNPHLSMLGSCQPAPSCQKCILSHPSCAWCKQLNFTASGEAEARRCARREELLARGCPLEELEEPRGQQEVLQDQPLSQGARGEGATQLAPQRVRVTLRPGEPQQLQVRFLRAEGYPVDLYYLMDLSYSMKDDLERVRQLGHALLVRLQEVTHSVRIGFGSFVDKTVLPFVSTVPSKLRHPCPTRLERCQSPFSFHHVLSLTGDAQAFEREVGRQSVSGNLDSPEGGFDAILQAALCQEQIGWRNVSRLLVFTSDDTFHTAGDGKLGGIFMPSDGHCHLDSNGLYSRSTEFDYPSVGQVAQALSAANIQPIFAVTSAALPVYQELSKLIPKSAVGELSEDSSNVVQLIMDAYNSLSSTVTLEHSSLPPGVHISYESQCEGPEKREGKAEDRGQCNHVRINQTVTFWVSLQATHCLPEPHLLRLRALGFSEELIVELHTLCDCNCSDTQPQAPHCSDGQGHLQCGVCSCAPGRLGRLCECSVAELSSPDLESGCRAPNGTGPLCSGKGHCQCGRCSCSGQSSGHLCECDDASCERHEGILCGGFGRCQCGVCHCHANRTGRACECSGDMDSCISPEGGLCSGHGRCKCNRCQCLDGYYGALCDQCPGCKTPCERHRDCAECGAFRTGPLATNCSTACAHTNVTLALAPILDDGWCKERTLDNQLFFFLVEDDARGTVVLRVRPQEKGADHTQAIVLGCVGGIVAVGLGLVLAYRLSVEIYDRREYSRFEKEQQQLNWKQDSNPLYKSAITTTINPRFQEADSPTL
Experimental: VCAM Antagonistic Activity (VCAM-1/α4β7 Binding Assay)
The capacity of a test substance antagonistic to the binding of lymphoma cell strain RPMI-8866 of human B cells, known to express integrin α4β7, to VCAM-1 was determined.
as §1
RPMI-8866 cells were washed with DMEM twice and incubated in Dulbecco modified Eagle medium containing 10 μg/ml of Calcein-AM (Wako Pure Chemical Industries, Ltd.) (SIGMA, hereinafter referred to as “DMEM”) in dark place at 37° C. for 30 minutes to label with fluorescence. The cells were again suspended in a binding buffer (20 mM HEPES, DMEM containing 0.1% BSA) containing 4 mM of MnCl2.
as §2, with “RPMI-8866” for “Jurkat”, “1420” for “1920”

T1 sequence (P05556 21-798, one chain of several): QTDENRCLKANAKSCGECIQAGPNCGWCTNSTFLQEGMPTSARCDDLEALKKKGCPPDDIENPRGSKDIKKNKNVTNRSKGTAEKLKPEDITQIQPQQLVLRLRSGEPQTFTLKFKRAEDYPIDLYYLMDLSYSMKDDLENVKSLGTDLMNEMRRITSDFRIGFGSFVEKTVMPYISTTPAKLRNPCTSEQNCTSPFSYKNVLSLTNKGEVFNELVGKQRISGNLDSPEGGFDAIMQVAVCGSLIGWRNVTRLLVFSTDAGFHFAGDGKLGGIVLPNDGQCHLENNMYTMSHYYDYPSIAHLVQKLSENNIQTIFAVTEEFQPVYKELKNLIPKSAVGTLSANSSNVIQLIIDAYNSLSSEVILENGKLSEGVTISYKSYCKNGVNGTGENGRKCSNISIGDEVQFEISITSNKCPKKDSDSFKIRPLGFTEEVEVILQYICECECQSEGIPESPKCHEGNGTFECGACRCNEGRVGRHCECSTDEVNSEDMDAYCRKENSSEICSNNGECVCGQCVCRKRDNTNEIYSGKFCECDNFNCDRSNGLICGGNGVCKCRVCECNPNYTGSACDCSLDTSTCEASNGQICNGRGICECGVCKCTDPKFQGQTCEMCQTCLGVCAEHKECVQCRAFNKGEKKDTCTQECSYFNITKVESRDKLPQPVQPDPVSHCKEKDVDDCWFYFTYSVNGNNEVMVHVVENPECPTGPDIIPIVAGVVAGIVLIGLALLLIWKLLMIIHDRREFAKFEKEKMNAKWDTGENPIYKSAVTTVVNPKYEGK

Cn1c(=O)n(-c2ccc(C[C@H](NC(=O)c3c(Cl)cccc3Cl)C(=O)O)cc2)c(=O)c2cc(Cl)ccc21 [Example 183]
IC50 (integrin α4β1): 25 nM
IC50 (integrin α4β7): 1.7 nM

Cc1cccc(C)c1C(=O)N[C@@H](Cc1ccc(-n2c(-c3ccccc3)nc3ccccc3c2=O)cc1)C(=O)O [Example 42]
IC50 (integrin α4β1): 6730 nM
IC50 (integrin α4β7): 92 nM

O=C(O)Cn1c(=O)n(-c2ccc(C[C@H](NC(=O)c3c(Cl)cccc3Cl)C(=O)O)cc2)c(=O)c2ccccc21 [Example 7]
IC50 (integrin α4β1): 110 nM
IC50 (integrin α4β7): 22 nM

Cc1cccc(C)c1C(=O)N[C@@H](Cc1ccc(-n2c(CCl)nc3ccccc3c2=O)cc1)C(=O)O [Example 44]
IC50 (integrin α4β1): 4230 nM
IC50 (integrin α4β7): 79 nM

O=C(N[C@@H](Cc1ccc(-n2c(=O)c3cc([N+](=O)[O-])ccc3n(Cc3ccccc3)c2=O)cc1)C(=O)O)c1c(Cl)cccc1Cl [Example 65]
IC50 (integrin α4β1): 330 nM
IC50 (integrin α4β7): 7 nM

O=C(N[C@@H](Cc1ccc(-n2c(=O)c3cc([N+](=O)[O-])ccc3n(Cc3ccccc3)c2=S)cc1)C(=O)O)c1c(Cl)cccc1Cl [Example 69]
IC50 (integrin α4β1): 5630 nM
IC50 (integrin α4β7): 2.5 nM

CCOc1nc2ccc(Cl)cc2c(=O)n1-c1ccc(C[C@H](NC(=O)c2c(Cl)cccc2Cl)C(=O)O)cc1 [Example 93]
IC50 (integrin α4β1): 4030 nM
IC50 (integrin α4β7): 4.8 nM

COc1cc2[nH]c(=O)n(-c3ccc(C[C@H](NC(=O)c4c(Cl)cccc4Cl)C(=O)O)cc3)c(=O)c2cc1OC [Example 51]
IC50 (integrin α4β1): 1180 nM
IC50 (integrin α4β7): 30 nM

COc1cc2c(=O)n(-c3ccc(C[C@H](NC(=O)c4c(Cl)cccc4Cl)C(=O)O)cc3)c(=O)n(C)c2cc1OC [Example 188]
IC50 (integrin α4β1): 11 nM
IC50 (integrin α4β7): 2.7 nM

Cn1c(=O)n(-c2ccc(C[C@H](NC(=O)c3c(Cl)cccc3Cl)C(=O)O)cc2)c(=O)c2c(Cl)ccc(Cl)c21 [Example 70]
IC50 (integrin α4β1): 34 nM
IC50 (integrin α4β7): 3.5 nM

CCCCc1nc2ccccc2c(=O)n1-c1ccc(C[C@H](NC(=O)c2c(Cl)cccc2Cl)C(=O)O)cc1 [Example 34]
IC50 (integrin α4β1): 2210 nM
IC50 (integrin α4β7): 42 nM

Cn1c(=O)n(-c2ccc(C[C@H](NC(=O)c3c(Cl)cccc3Cl)C(=O)O)cc2)c(=O)c2cccc(Cl)c21 [Example 182]
IC50 (integrin α4β1): 113 nM
IC50 (integrin α4β7): 6.2 nM

Cn1c(=O)n(-c2ccc(C[C@H](NC(=O)[C@H]3CC[C@H](C(=O)O)CC3)C(=O)O)cc2)c(=O)c2ccccc21 [Example 13]
IC50 (integrin α4β1): 220 nM
IC50 (integrin α4β7): 4.5 nM

Cn1c(=O)n(-c2ccc(C[C@H](NC(=O)c3c(Cl)cccc3Cl)C(=O)O)cc2)c(=O)c2ccc(F)cc21 [Example 72]
IC50 (integrin α4β1): 27 nM
IC50 (integrin α4β7): 2.6 nM

CCOc1nc2ccccc2c(=O)n1-c1ccc(C[C@H](NC(=O)c2c(Cl)cccc2Cl)C(=O)O)cc1 [Example 37]
IC50 (integrin α4β1): 200 nM
IC50 (integrin α4β7): 19 nM

Cn1c(=S)n(-c2ccc(C[C@H](NC(=O)c3c(Cl)cccc3Cl)C(=O)O)cc2)c(=O)c2cc([N+](=O)[O-])ccc21 [Example 66]
IC50 (integrin α4β1): 170 nM
IC50 (integrin α4β7): 1.3 nM

CC(C)Cn1c(=O)n(-c2ccc(C[C@H](NC(=O)c3c(Cl)cccc3Cl)C(=O)O)cc2)c(=O)c2cc([N+](=O)[O-])ccc21 [Example 61]
IC50 (integrin α4β1): 1150 nM
IC50 (integrin α4β7): 42 nM

O=C(N[C@@H](Cc1ccc(-n2c(=O)c3ccccc3n(Cc3ccc(Cl)cc3)c2=O)cc1)C(=O)O)c1c(Cl)cccc1Cl [Example 117]
IC50 (integrin α4β1): 480 nM
IC50 (integrin α4β7): 19 nM

O=C(N[C@@H](Cc1ccc(-n2c(=O)c3cc([N+](=O)[O-])ccc3n(C3CC3)c2=S)cc1)C(=O)O)c1c(Cl)cccc1Cl [Example 68]
IC50 (integrin α4β1): 350 nM
IC50 (integrin α4β7): 1.5 nM

O=C(N[C@@H](Cc1ccc(-n2c(=O)c3cc([N+](=O)[O-])ccc3n(C3CCC3)c2=O)cc1)C(=O)O)c1c(Cl)cccc1Cl [Example 59]
IC50 (integrin α4β1): 540 nM
IC50 (integrin α4β7): 35.8 nM

Cn1c(=O)n(-c2ccc(C[C@H](NC(=O)c3c(Cl)cccc3Cl)C(=O)O)cc2)c(=O)c2ccc(C(F)(F)F)cc21 [Example 185]
IC50 (integrin α4β1): 12 nM
IC50 (integrin α4β7): 2.7 nM

O=C(N[C@@H](Cc1ccc(-n2c(=O)c3cc([N+](=O)[O-])ccc3n(CC3CCCCC3)c2=O)cc1)C(=O)O)c1c(Cl)cccc1Cl [Example 62]
IC50 (integrin α4β1): 1450 nM
IC50 (integrin α4β7): 45 nM

O=C(N[C@@H](Cc1ccc(-n2c(=O)c3cc([N+](=O)[O-])ccc3n(C3CCCC3)c2=O)cc1)C(=O)O)c1c(Cl)cccc1Cl [Example 60]
IC50 (integrin α4β1): 780 nM
IC50 (integrin α4β7): 36.1 nM

COc1nc2ccccc2c(=O)n1-c1ccc(C[C@H](NC(=O)c2c(Cl)cccc2Cl)C(=O)O)cc1 [Example 36]
IC50 (integrin α4β1): 490 nM
IC50 (integrin α4β7): 6.6 nM
